The values below come from paper PMC8799717, “Pharmacological targeting PIKfyve and tubulin as an effective treatment strategy for double-hit lymphoma” (Cell Death Discovery, 2022).

Targets include CHEK2 (Homo sapiens, UniProt O96017); DYRK2 (Homo sapiens, UniProt Q92630); EGFR(L861Q) (Homo sapiens, UniProt P00533, L861Q); ERBB3 (Homo sapiens, UniProt P21860); FLT3 (Homo sapiens, UniProt P36888); KIT-autoinhibited (Homo sapiens, UniProt P10721); LRRK2 (Homo sapiens, UniProt Q5S007); MELK (Homo sapiens, UniProt Q14680); MET(Y1235D) (Homo sapiens, UniProt P08581, Y1235D); MYO3A (Homo sapiens, UniProt Q8NEV4); NEK5 (Homo sapiens, UniProt Q6P3R8); NEK9 (Homo sapiens, UniProt Q8TD19); PHKG2 (Homo sapiens, UniProt P15735); PLK1 (Homo sapiens, UniProt P53350); PRKD2 (Homo sapiens, UniProt Q9BZL6); RET(V804M) (Homo sapiens, UniProt P07949, V804M); TSSK1B (Homo sapiens, UniProt Q9BXA7); ULK1 (Homo sapiens, UniProt O75385).

Holding throughout (test): biochemical
Common to all, as to parameters: KINOMEscan active-site-directed competition binding panel, 468 kinases, percent of DMSO control at 1 uM
Holding throughout (details): KINOMEscan binding, percent of DMSO control; read-out: Ctrl%

Another experiment concerns the target T1, DRAK1 (Homo sapiens, UniProt Q9UEE5).
T1 construct: gene STK17A

In a further experiment the target is T2, MLK2 (Homo sapiens, UniProt Q02779).
T2 construct: gene MAP3K10

The target in another experiment is T3, PFTK1 (Homo sapiens, UniProt O94921).
T3 construct: gene CDK14

A further experiment concerns the target T4, QSK (Homo sapiens, UniProt Q9Y2K2).
T4 construct: gene SIK3

The target of experiment [1] is T5, RSK2(Kin.Dom.1-N-terminal) (Homo sapiens, UniProt P51812).
T5 construct: gene RPS6KA3; Kin.Dom.1-N-terminal

Experiment [2] has as its target T6, RSK4(Kin.Dom.1-N-terminal) (Homo sapiens, UniProt Q9UK32).
T6 construct: gene RPS6KA6; Kin.Dom.1-N-terminal

T6 sequence (Q9UK32 whole entry): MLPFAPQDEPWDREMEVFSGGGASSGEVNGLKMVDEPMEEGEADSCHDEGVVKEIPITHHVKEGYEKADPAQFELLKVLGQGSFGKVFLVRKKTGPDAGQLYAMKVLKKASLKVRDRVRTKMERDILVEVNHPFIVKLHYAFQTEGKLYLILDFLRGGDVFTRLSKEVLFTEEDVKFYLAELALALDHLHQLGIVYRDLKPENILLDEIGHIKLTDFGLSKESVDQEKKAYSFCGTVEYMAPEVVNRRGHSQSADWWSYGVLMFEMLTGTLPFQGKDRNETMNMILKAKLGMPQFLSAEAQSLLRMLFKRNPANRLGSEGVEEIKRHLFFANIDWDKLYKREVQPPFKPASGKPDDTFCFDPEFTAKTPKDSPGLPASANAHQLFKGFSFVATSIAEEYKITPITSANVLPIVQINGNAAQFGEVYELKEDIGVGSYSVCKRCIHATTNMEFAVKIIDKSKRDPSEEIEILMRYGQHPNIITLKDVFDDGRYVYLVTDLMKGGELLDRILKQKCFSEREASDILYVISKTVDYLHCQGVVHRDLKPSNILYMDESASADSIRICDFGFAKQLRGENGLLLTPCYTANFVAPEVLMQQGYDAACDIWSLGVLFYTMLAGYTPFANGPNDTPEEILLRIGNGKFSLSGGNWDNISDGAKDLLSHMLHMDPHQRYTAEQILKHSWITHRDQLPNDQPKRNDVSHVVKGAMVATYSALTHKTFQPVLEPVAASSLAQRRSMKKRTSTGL
FLT3, sequence (P36888 whole entry): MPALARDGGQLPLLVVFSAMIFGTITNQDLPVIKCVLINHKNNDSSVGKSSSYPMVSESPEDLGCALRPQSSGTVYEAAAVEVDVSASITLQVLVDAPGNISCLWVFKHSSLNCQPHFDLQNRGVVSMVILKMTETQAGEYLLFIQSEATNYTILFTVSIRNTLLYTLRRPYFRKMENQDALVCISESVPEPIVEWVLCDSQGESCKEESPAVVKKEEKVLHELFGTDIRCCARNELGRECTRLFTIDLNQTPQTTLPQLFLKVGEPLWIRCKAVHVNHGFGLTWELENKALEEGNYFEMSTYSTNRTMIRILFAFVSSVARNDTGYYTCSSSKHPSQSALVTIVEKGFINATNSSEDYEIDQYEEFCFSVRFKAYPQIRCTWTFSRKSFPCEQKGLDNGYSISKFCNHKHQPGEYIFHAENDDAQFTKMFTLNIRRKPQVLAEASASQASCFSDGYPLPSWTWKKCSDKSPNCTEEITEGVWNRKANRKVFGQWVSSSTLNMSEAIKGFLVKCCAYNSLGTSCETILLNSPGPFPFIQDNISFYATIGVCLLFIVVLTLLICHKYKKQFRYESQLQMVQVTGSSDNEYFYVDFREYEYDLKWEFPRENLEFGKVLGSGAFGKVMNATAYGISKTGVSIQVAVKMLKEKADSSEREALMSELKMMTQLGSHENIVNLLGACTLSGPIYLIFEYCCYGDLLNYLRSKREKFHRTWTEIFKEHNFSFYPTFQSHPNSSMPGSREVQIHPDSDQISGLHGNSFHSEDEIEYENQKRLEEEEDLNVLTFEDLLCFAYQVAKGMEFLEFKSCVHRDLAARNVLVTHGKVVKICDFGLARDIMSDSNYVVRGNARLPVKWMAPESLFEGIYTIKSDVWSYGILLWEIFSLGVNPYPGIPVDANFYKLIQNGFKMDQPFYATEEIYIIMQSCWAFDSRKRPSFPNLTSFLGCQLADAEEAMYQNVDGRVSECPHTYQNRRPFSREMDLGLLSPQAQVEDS
KIT-autoinhibited, sequence (P10721 whole entry): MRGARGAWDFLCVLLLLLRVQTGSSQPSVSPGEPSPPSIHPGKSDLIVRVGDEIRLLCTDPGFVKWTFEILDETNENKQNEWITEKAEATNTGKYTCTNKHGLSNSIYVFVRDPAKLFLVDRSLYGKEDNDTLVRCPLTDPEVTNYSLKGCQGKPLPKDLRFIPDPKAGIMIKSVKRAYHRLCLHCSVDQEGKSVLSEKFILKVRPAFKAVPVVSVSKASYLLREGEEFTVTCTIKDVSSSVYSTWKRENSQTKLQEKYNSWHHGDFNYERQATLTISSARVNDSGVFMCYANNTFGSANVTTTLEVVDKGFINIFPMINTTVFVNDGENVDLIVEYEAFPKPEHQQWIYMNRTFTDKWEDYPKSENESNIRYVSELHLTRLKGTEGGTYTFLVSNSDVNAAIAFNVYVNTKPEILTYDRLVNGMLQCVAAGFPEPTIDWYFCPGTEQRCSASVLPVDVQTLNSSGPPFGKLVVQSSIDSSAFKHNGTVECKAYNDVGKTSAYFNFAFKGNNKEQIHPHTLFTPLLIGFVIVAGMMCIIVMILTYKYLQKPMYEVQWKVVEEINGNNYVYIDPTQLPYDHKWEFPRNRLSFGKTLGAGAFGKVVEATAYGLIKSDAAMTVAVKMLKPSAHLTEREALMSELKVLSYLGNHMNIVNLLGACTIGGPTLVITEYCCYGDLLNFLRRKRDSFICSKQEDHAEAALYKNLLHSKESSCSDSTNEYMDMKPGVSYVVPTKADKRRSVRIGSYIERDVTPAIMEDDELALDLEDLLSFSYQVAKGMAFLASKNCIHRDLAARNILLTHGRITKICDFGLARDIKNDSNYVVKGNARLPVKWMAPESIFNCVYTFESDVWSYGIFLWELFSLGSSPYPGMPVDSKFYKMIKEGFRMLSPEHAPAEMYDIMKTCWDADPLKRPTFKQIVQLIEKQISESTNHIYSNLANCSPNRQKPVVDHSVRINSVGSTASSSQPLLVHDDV
PRKD2, sequence (Q9BZL6 whole entry): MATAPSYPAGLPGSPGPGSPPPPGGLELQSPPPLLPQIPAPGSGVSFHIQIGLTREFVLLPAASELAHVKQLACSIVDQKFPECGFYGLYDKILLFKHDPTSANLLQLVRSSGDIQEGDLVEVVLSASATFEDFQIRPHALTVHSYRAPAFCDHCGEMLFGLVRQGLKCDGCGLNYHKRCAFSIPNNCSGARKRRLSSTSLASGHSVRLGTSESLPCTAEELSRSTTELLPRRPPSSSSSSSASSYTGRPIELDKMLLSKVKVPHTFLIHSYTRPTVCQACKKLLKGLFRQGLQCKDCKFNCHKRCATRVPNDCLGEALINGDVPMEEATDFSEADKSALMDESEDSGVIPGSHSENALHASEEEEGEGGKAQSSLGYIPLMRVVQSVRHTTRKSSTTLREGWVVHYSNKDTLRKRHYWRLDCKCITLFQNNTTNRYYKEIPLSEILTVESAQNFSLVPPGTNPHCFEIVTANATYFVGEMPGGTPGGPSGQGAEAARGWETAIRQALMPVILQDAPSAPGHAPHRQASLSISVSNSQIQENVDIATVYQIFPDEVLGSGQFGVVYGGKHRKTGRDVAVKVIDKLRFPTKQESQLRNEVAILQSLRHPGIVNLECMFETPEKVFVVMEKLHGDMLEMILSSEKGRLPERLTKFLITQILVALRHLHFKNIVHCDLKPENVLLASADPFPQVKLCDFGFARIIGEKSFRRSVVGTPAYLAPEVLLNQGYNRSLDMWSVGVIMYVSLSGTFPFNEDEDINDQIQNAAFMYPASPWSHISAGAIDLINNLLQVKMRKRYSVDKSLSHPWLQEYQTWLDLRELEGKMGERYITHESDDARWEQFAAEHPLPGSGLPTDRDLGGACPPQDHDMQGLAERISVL
MET(Y1235D), sequence (P08581 whole entry Y1235D): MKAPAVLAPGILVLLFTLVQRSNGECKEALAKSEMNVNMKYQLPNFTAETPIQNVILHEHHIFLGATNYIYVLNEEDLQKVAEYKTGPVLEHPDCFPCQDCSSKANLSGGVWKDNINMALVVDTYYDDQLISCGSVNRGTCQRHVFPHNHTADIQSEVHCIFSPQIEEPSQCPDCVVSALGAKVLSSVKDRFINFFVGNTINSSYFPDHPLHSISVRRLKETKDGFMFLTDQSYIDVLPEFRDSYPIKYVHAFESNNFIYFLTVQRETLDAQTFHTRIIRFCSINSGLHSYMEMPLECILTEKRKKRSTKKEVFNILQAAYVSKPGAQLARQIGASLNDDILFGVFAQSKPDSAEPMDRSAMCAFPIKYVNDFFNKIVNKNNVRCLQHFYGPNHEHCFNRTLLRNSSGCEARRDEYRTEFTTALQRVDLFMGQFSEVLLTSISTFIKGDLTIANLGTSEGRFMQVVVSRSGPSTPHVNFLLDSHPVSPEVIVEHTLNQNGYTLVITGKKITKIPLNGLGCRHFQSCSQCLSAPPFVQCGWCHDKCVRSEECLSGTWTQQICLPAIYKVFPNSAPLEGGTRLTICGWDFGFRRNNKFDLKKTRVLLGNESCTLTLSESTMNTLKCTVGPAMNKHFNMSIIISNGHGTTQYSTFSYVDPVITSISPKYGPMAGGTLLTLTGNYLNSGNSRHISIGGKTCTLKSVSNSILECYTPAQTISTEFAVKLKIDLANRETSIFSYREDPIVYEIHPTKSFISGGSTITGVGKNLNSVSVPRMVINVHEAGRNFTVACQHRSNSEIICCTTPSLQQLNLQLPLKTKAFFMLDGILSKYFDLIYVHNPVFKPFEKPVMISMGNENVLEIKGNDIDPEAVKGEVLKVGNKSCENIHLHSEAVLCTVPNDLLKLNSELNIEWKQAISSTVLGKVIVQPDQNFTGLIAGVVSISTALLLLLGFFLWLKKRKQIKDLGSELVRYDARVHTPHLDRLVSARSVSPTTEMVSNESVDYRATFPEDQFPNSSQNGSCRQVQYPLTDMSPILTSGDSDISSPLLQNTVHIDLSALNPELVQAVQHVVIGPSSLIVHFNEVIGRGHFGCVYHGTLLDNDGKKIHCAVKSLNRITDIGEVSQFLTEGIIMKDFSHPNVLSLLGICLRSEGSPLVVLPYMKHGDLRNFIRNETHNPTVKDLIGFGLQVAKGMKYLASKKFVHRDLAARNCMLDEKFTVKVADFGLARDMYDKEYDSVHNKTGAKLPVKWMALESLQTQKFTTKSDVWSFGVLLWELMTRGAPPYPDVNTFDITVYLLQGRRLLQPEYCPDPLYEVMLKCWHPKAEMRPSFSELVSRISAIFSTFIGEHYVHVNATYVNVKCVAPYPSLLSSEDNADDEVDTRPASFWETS

Consider `Cc1ccc(NC(=O)c2cccc(C(F)(F)F)c2)cc1Nc1cc(-c2cccnc2)nc2[nH]ccc12` [HZX-02-059], for which the remaining binding at 1 µM at CHEK2 stood at 61%; on DRAK1 it was 83%; at DYRK2 it was 88%; at EGFR(L861Q) it was 76%; at ERBB3, 100%; at FLT3, 91%. Moreover, the remaining binding at 1 µM on KIT-autoinhibited turned out to be 88%; at LRRK2 it was 100%; on MELK, 96%; at MET(Y1235D), 95%; at MLK2, 97%; at MYO3A it was 91%. Also, the remaining binding at 1 µM on NEK5 came to 100%; on NEK9 it was 71%; at PFTK1, 98%; on PHKG2 it was 92%; at PLK1, 100%; at PRKD2, 92%. Besides, the remaining binding at 1 µM on QSK was determined as 66%; at RET(V804M) it was 95%; in experiment [1] it was 78%; in experiment [2], 79%; on TSSK1B it was 100%; on ULK1 it was 97%.
